Data taken from EP4818189A1, “NITROGEN-CONTAINING HETEROCYCLIC COMPOUND, AND PREPARATION METHOD AND USE THEREFOR” (Chengdu Di'ao Pharmaceutical Group Co., Ltd., priority 2023, dated 2025).
Where a SMILES comes first, the peptide text is derived from it. [ ]: non-standard residue; d: D form. ξ: configuration not given here. ξAze = O=C(O)C1CCN1

Columns and labels:
[1] = Rat pharmacokinetic detection; type: in vivo; details: plasma, male SD rats
Method: The detection was carried out in 6-8-week-old male SD rats (purchased from:SPF (Beijing) Biotechnology Co., Ltd.). A test compound was dissolved in a solution containing 10% DMSO, 15% Solutol HS and 75% (aqueous solution of 10% hydroxypropyl-β-cyclodextrin), and administered via intravenous injection (10 mg/kg) or oral gavage (15 mg/kg). A concentration of the compound in a plasma sample was analyzed by LC-MS/MS. Pharmacokinetic calculation was carried out by using WinNonlin (Phoenix™, Version 8.3). The following pharmacokinetic parameters were calculated based on plasma concentration and time data: Oral administration: AUClast, bioavailability (F). Statistical calculation was carried out on the above parameter data. Table 4 Pharmacokinetic data of some compounds administered orally in rats

[2] = Mouse pharmacokinetic detection; type: in vivo; details: plasma, CD1 mice; for AUC(0-t): oral gavage 10 mg/kg; for bioavailability: oral gavage 10 mg/kg vs intravenous 10 mg/kg
Method: The detection was carried out in 6-8-week-old CD1 mice (purchased from: Speifu (Beijing) Biotechnology Co., Ltd.). […] The concentration of the compound in a plasma sample was analyzed by LC-MS/MS. Pharmacokinetic calculation was carried out by using WinNonlin (Phoenix™, Version 8.3) or other similar software. The following pharmacokinetic parameters were calculated based on plasma concentration and time data: Oral administration: AUClast, bioavailability (F). Statistical calculation was carried out on the above parameter data. Table 3 Pharmacokinetic data of some compounds administered orally in mice

[3] = Permeability detection in MDR1-MDCK II cell monolayer; type: in vitro ADME; details: dog, pH 7.4, MDR1-MDCK II cells, 2 µM, 2.5 hours; for Papp A→B at 2.5 h, 2 µM: apical to basolateral; for Papp B→A at 2.5 h, 2 µM: basolateral to apical
Method: (§1) MDR1-MDCK II cells (imported from the Netherlands Cancer Institute) were seeded in a 96-well cell plate at a density of 3.33×10^5 cells/mL, and cultured in a carbon dioxide incubator for 4-7 days to form a cell monolayer. A Hank's balanced salt solution (HBSS, pH 7.40 ± 0.05) containing 10.0 mM 4-(2-hydroxyethyl)-1-piperazineethanesulfonic acid (HEPES) was used as a transport buffer. A DMSO stock solution of compound was diluted to 2 µM (DMSO < 1.0%) with the transport buffer, and added to the basolateral (B) side and apical (A) side respectively (N=2). The bidirectional (A-B and B-A) incubation concentration of Digoxin, a P-gp substrate, was 10 µM, and the unidirectional (A-B) incubateion concentrations of Nadolol, a low-permeability control, and Metoprolol, a high-permeability control, were 2 µM. The cell plate was incubated in a 5% CO2 cell incubator at 37°C and saturated humidity for 2.5 hours, then final samples from a receiver side and a donor side were collected, added with the transport buffer and a precipitant at an appropriate ratio, and analyzed by LC-MS/MS, and an apparent permeability coefficient, an efflux ratio and a solution recovery were calculated.
(§2) After the transport experiment was completed, an integrity of the MDR1-MDCK II cell layer was detected by a lucifer yellow detection experiment. Residual solution in apical and basolateral wells was removed, and 75 µL of transport buffer containing 100 µM lucifer yellow was added to the apical wells and 250 µL of transport buffer was added to the basolateral wells respectively. The cell plate was incubated in a 5% CO2 cell incubator at 37 °C and saturated humidity for 30 minutes, then 20 µL of sample was taken from the apical side and mixed with 60 µL of transport buffer and 80 µL of sample was taken from the basolateral side. A relative fluorescence intensity was detected by a microplate reader at excitation/emission wavelengths of 425/528 nm, and the permeability of Lucifer Yellow was calculated.
(§3) The apparent permeability coefficient (Papp), efflux ratio (ER) and %solution recovery were respectively calculated by following formulas: Papp = (VR)/(Area × Time) × ([drug]receiver)/([drug]initial,donor) = (VR)/(Area × Time) × (CR)/(C0) [formula] Efflux Ratio = (Papp (B−A))/(Papp (A−B)) [formula] %Solution Recovery = (CR × VR + CD × VD)/(C0 × VD) × 100 [formula]
(§4) VR was the volume of solution in the receiver side (0.075 mL for the apical side and 0.25 mL for the basolateral side respectively), VD was the volume of solution in the donor side (0.075 mL for the apical side and 0.25 mL for the basolateral side respectively), CR was the peak area ratio of compound in the receiver side, CD was the peak area ratio of compound in the donor side, C0 was the initial peak area ratio of compound in the donor side, Area was the surface area (0.143 cm^2) of the cell monolayer, and Time was incubation time of 9000 seconds (150 minutes). Papp(B-A) and Papp(A-B) respectively referred to the apparent permeability coefficient from the basolateral side to the apical side and the apparent permeability coefficient from the apical side to the basolateral side.
(§5) The permeability of Lucifer Yellow(%Lucifer Yellow) was calculated by the following formula: %Lucifer Yellow = (VBasolateral × RFUBasolateral)/(VApical × RFUApical + VBasolateral × RFUBasolateral) × 100 [formula]
(§6) RFUApical and RFUBasolareral respectively referred to relative fluorescence intensities of lucifer yellow in the apical side and the basolateral side. VApical and VBasolateral respectively referred to loading volumes (0.075 mL and 0.25 mL respectively) in the apical side and the basolateral side. Table 2 Permeability data of some compounds

MDR1-MDCK II cells = test: as above; type: in vitro ADME; details: permeability rank
Method: as §1, §2, §3, §4, §5, §6

CUMS model mice [4] = test: Tail suspension test in CUMS model mice, oral administration; type: in vivo, C57/B6 mice; details: single oral dose 25 mg/kg, test 2 hours later (FIG. 1, FIG. 2)
Description: (§7) 6-8-week-old C57/B6 mice (purchased from: Jinan Pengyue Laboratory Animal Breeding Co., Ltd.) were used to establish a 28-day chronic unpredictable mild stress (CUMS) animal model, and an experimental procedure referred to document description^[1,2]. After one week of acclimatization, seven experiments, including food and water deprivation, foot shock, wet bedding, cage tilting, restraint stress, shaker stress, and olfactory stimulation, were randomly applied to the animals within one week to achieve unpredictability, and the stimulation was continued for 4 consecutive weeks. The successful establishment of the model was verified by an open field test (OFT)^[3], and then pharmacodynamic evaluation was carried out. The animals were divided into a blank control group (Control), a model group (Model), a vehicle control group (Vehicle), a fluoxetine control group, ZZL-7 experimental group and a compound group in the experiment. The test compound was orally administered once at a dose of 25 mg/kg, a tail suspension test (TST)^[4,5] was carried out 2 hours later to evaluate the depression of the mice, and prolonged immobility time in the TST indicated behavioral despair of the mice. After summary statistics of data, SPSS data statistics software was used for analysis, and Graph Pad software was used for graph generation based on SPSS analysis results.

[5] = Plasma stability determination; type: in vitro ADME; details: mouse
Method: Mouse plasma (purchased from IPHASE, Batch No. 23B007) was thawed in a 37°C water bath, centrifuged to remove an upper clot, and the pH value was recorded as 7-8. An appropriate volume of stock solution of test compound in acetonitrile (at a concentration of 10 mM) was diluted with acetonitrile to 1 mM, so as to serve as a test drug solution. An appropriate volume of test drug solution was added to a corresponding volume of plasma and mixed uniformly, such that the concentration of the test compound in the incubation system was 5 µM, and the content of the organic solvent acetonitrile was 0.5%. 50 µL of mixed plasma was transferred into a 96-well plate (N=2), incubated at 37°C in a water bath for a designated time, and then added with 300 µL of internal standard-containing methanol solution to terminate the reaction. The reaction mixture was vortexed and centrifuged, and the supernatant was subjected to LC-MS/MS analysis. Propantheline and ZZL-7 were used as positive controls, and processed and tested under the same conditions as the test compound. A curve was plotted with the remaining percentage of the compound against incubation time to obtain a k value, and the half-life of each compound was calculated.

CUMS model mice [6] = test: Tail suspension test in CUMS model mice, intravenous administration; type: in vivo, C57/B6 mice; details: single i.v. dose 100 mg/kg, test 2 hours later (FIG. 4)
Description: as §7, with “control” for “control group, ZZL-7 experimental”, “intravenously (i.v.)” for “orally”, “100” for “25”, “(TST) and a forced swimming test (FST)^[4,5] were” for “(TST)^[4,5] was”, “TST and the FST” for “TST”

CUMS model mice [7] = test: Forced swimming test in CUMS model mice, intravenous administration; type: in vivo, C57/B6 mice; details: single i.v. dose 100 mg/kg, test 2 hours later (FIG. 3)
Description: as §7, with “control” for “control group, ZZL-7 experimental”, “intravenously (i.v.)” for “orally”, “100” for “25”, “(TST) and a forced swimming test (FST)^[4,5] were” for “(TST)^[4,5] was”, “TST and the FST” for “TST”

[2H]C([2H])([2H])C(=O)N1CC[C@@H]1C(=O)N[C@H](c1ncco1)C(C)C [B-2-3]
AUC(0-t) ([1]; oral gavage 15 mg/kg): 24300 ng·h/mL | bioavailability ([1]; oral gavage 15 mg/kg vs intravenous 10 mg/kg): 66% | AUC(0-t) [2]: 10900 ng·h/mL | bioavailability [2]: 159% | Papp A→B at 2.5 h, 2 µM [3]: 2.42 ×10⁻⁶ cm/s | Papp B→A at 2.5 h, 2 µM [3]: 3.22 ×10⁻⁶ cm/s | Rank Papp (MDR1-MDCK II cells): Moderate | immobility time in the tail suspension test (CUMS model mice [4]): rapidly reverse the prolonged immobility time

CC(=O)N1CC[C@@H]1C(=O)N[C@H](c1ncco1)C(C)C [B-2-41]
AUC(0-t) [2]: 11600 ng·h/mL | bioavailability [2]: 90% | Papp A→B at 2.5 h, 2 µM [3]: 4.07 ×10⁻⁶ cm/s | Papp B→A at 2.5 h, 2 µM [3]: 5.61 ×10⁻⁶ cm/s | Rank Papp (MDR1-MDCK II cells): Moderate | immobility time in the tail suspension test (CUMS model mice [4]): rapidly reverse the prolonged immobility time | half-life at 5 µM [5]: > 4.82 h

COC(=O)[C@@H](NC(=O)c1cnc(C)[nH]1)C(C)C [A-1-1]
immobility time in the tail suspension test (CUMS model mice [6]): rapidly reverse the prolonged immobility time | immobility time in the forced swimming test (CUMS model mice [7]): rapidly reverse the prolonged immobility time | AUC(0-t) [2]: 629 ng·h/mL | bioavailability [2]: 35.3%

COC(=O)[C@@H](NC(=O)C1CCN1C(C)=O)C(C)C (some centres unmarked) [A-2-1] (Ac-[ξAze]-Val-OMe)
immobility time in the tail suspension test (CUMS model mice [6]): rapidly reverse the prolonged immobility time | immobility time in the forced swimming test (CUMS model mice [7]): rapidly reverse the prolonged immobility time | AUC(0-t) [2]: 3130 ng·h/mL | bioavailability [2]: 156%
